{"source": "patent EP1420790B1", "about": "“USE OF BIBN4096 IN COMBINATION WITH OTHER ANTIMIGRAINE DRUGS FOR THE TREATMENT OF MIGRAINE” (Boehringer Ingelheim Pharma GmbH & Co.KG, priority 2001, dated 2003)", "system": "facial skin vasodilation induced by electrical trigeminal ganglion stimulation", "test": "Measurement of facial skin blood flow (vasodilation induced by electrical trigeminal ganglion stimulation, laser Doppler flowmetry)", "assay_type": "in vivo, rat", "conditions": "for % of trigeminus stimulation: anaesthetized male wistar rats", "procedure": "Facial skin blood flow was measured by a modified method described by Escott et al. ([…]., Connor, H. E., Brain, S. D. (1995), Trigeminal ganglion stimulation increases facial skin blood flow in the rat a major role for calcitonin gene-related peptide, Brain Research, 669(1), 93-99). Fasted male wistar rats (strain CHbb:THOM, 280-320g) were anaesthetized with sodium pentobarbitone (initially with 60 mg/kg i.p. and maintained throughout the experiment with an intraperitoneal infusion of 30 mg/kg/h through a 23 G needle using a solution of 10 mg/ml). Both sides of the buccal area of the facial skin were shaved and depilated with a commercial depilatory […], Germany). The trachea was cannulated and the animals were artificially respired (80 strokes/min) with room air supplemented with oxygen. The body temperature was maintained at 37°C by an automated heating pad. The left femoral artery and the left femoral vein were cannulated for the continuous measurement of arterial blood pressure and intravenous administration of test compounds, respectively. […] Heart rate was derived from the blood pressure signal. Blood pressure and heart rate were continuously monitored throughout the course of the experiment to assess the level of anaesthesia and to monitor the cardiovascular effects of the drugs used in this study. The animals were placed in a stereotaxic frame and a longitudinal incision was made in the scalp. […] The position of the electrodes in the trigeminal ganglia were checked visually at the end of each experiment following removal of the brain. The trigeminal ganglion was stimulated at 10 Hz, 1 mA, 1 msec for 30 seconds using a stimulator supplied by Hugo Sachs Elektronik (79232 March-Hugstetten, Germany). Microvascular blood flow changes in the facial skin were measured by Laser Doppler flowmetry with a Periflux laser doppler system (PeriFLUX 4001, wave length […]; time constant 3 s, Perimed AB, Järfälla, S-17526, Sweden). Standard laser doppler probes (PROBE 408) were positioned on either side of the face approximately 0.5 cm below the centre of the eye, an area innervated by the maxillary branch (V2) of the trigeminal nerve. Blood flow changes were measured as flux in arbitrary units and expressed as area under the flux curve (mm^2) according to Escott et al. (1995). […] The first stimulation was used as a control for the subsequent stimulations."}
{"smiles": "NCCCC[C@H](NC(=O)[C@@H](Cc1cc(Br)c(O)c(Br)c1)NC(=O)N1CCC(N2Cc3ccccc3NC2=O)CC1)C(=O)N1CCN(c2ccncc2)CC1", "note": "[BIBN 4096 BS, 1-[N^2-[3,5-Dibromo-N-[[4-(3,4-dihydro-2(1H)-oxochinazolin-3-yl)-1-piperidinyl]-carbonyl]-D-tyrosyl]-L-lysyl]-4-(4-pyridinyl)-piperazine]", "values": [{"measurement": "% of trigeminus stimulation", "setting": "BIBN 4096 BS 0.03 mg/kg intravenously 5 min prior to second stimulation, mean ± spread", "value": "60.3 ± 5.1", "unit": "%"}, {"measurement": "% inhibition compared to control value", "setting": "BIBN 4096 BS 0.03 mg/kg intravenously 5 min prior to second stimulation, versus saline control", "value": 27.1, "unit": "%"}]}
{"smiles": "CN1C[C@H](C(=O)N[C@]2(C)O[C@@]3(O)[C@@H]4CCCN4C(=O)[C@H](Cc4ccccc4)N3C2=O)C[C@@H]2c3cccc4[nH]cc(c34)C[C@H]21", "note": "[DHE, Dihydroergotamin]", "values": [{"measurement": "% inhibition compared to control value", "setting": "rat, in vivo", "value": 27.0, "unit": "%"}]}
{"smiles": "CNS(=O)(=O)Cc1ccc2[nH]cc(CCN(C)C)c2c1", "note": "[Sumatriptan, sumatriptan]", "values": [{"measurement": "% of trigeminus stimulation", "setting": "Sumatriptan 1.0 mg/kg intravenously 5 min prior to second stimulation", "value": "68.8 ± 6.8", "unit": "%"}, {"measurement": "% inhibition compared to control value", "setting": "Sumatriptan 1.0 mg/kg intravenously 5 min prior to second stimulation, versus saline control", "value": 16.8, "unit": "%"}]}
{"smiles": "CN(C)CCc1c[nH]c2ccc(C[C@H]3COC(=O)N3)cc12", "note": "[Zolmitriptan, zolmitriptan]", "values": [{"measurement": "% of trigeminus stimulation", "setting": "Zolmitriptan 0.1 mg/kg intravenously 5 min prior to second stimulation", "value": "55.6 ± 4.8", "unit": "%"}, {"measurement": "% inhibition compared to control value", "setting": "Zolmitriptan 0.1 mg/kg intravenously 5 min prior to second stimulation, versus saline control", "value": 32.8, "unit": "%"}]}
